Earlier results on two molecules are cited in US20130064804A1, “BIO-REPLENISHMENT (BioRep) FOR IMPROVING SLEEP ARCHITECTURE” (Naidu LP, priority 2011, published 2013).

For data set [1] the following is noted: in vivo.
For data set [2] the following is noted: typical dose (1 to 3 mg).

`C[S+](CC[C@H](N)C(=O)O)C[C@H]1O[C@@H](n2cnc3c(N)ncnc32)[C@H](O)[C@@H]1O` (some centres unmarked) [SAMe, S-adenosylmethionine]: in data set [1], the “first-pass: fraction metabolized in the liver” value is on record as “approximately 50%”.
In the case of `COc1ccc2[nH]cc(CCNC(C)=O)c2c1` [melatonin, N-acetyl-5-methoxytryptamine], the “elevation of blood melatonin levels above normal” value in data set [2] is 1 to 20 times.
